Literature values, collected in patent US20040019101A1, “Methods of treating gastrointestinary and genitourinary pain disorders” (priority 2002, published 2004).

Columns and labels:
[1] = system: monoamine neurotransmitter uptake
irritable bowel syndrome = details: in vivo
orocecal transit = details: healthy subjects or IBS patients
dopamine reuptake = details: compared with serotonin and norepinephrine uptake
adrenergic receptors = details: in vitro
histaminergic receptors = details: in vitro

Question: For `CN(C)CC(c1ccc(O)cc1)C1(O)CCCCC1` (centres unmarked) [O-desmethyl venlafaxine, 1-[(2-dimethylamino)-1-(4-hydoxyphenyl)ethyl]cyclohexanol], which “inhibition of monoamine neurotransmitter uptake” value [1] is on record?
Answer: Its value is “potent inhibitors”.

Question: For `CN(C)CCC=C1c2ccccc2CCc2ccccc21` [amytriptiline], which “efficacy in treatment of irritable bowel syndrome” value (from here on “efficacy in treatment”) (irritable bowel syndrome) is on record?
Answer: The value was “efficacious”.

Question: With `CN(C)CCC=C1c2ccccc2COc2ccccc21` [doxepin] as the compound, how does the “efficacy in treatment” value (irritable bowel syndrome) read?
Answer: Its value is “efficacious”.

Question: With `CN(C)CCCN1c2ccccc2CCc2ccccc21` [imipramine] as the compound, how does the “efficacy in treatment” value (irritable bowel syndrome) read?
Answer: The value was “efficacious”.

Question: What about the “effect on orocecal transit” value (orocecal transit) of the same compound?
Answer: Its value is “prolong orocecal transit”.

Question: Which results are given for `COc1ccc(C(CN(C)C)C2(O)CCCCC2)cc1` (centres unmarked) [venlafaxine, 1-[2-(dimethylamino)-1-(4-methoxyphenyl)ethyl] cyclohexanol]?
Answer: inhibition of dopamine reuptake (dopamine reuptake): To a lesser degree; inhibition of monoamine neurotransmitter uptake [1]: potent inhibitors; inhibitory activity on monoamine oxidase (monoamine oxidase): no inhibitory activity; affinity for adrenergic receptors (adrenergic receptors): virtually no affinity; affinity for histaminergic receptors (histaminergic receptors): virtually no affinity; inhibition of norepinephrine uptake (norepinephrine uptake): potent inhibition
